{"source": "patent US20130136722A1", "about": "“Methods of Ex Vivo Expansion of Blood Progenitor Cells, and Generation of Composite Grafts” (The Board of Trustees of The University of Illinois, priority 2011, published 2013)", "key": {"[1]": {"system": "cord blood-derived CD34+CD90+ cells", "test": "Ex vivo expansion culture of cord blood CD34+ cells with chromatin modifying agents, flow cytometry for CD34/CD90", "format": "cell-based, human", "excerpt": "Freshly collected human CB was obtained from the New York Blood Center (New York, N.Y.) according to Institutional Review Board guidelines. Low density CB cells (<1.077 g/ml) were obtained by density centrifugation on Ficoll-Paque PLUS (GE Healthcare Bio-Sciences AB, Uppsala, Sweden), from which CD34^+ cells were immunomagnetically isolated by the MACS CD34 progenitor isolation kit (Miltenyi Biotech, Inc., Auburn, Calif.) as described in Araki et al., 2009, Exp Hematol. 37: 1084-1095). The purity of isolated CD34^+ cells routinely ranged from 90-99%.\nCD34^+ cell expansion culture with or without CMA was carried out as described (Araki et al., 2009, Id.; Araki et al. 2006, Exp Hematol. 34: 140-149; Araki et al, 2007, Blood 109: 3570-3578.). All other HDAC inhibitors including 1 mM VPA (Sigma), TSA (5 ng/mL), NA (5 mM) or 5 μM of Suberoylanilide hydroxamic acid (SAHA; BioVision, Inc. Mountain View, Calif.) was added twice at 0 hr and after changing media at 48 hrs of culture. HDAC inhibitors were added only once (48 hr) when used in combination with a DNMT inhibitor as described (Araki et al., 2009, Id.; Araki et al., 2006, Id.; Himburg et al., 2010, Nat. Med. 16: 475-482).\nFlow cytometric analysis was carried out as described (Araki et al., 2009, Id.; Araki et al. 2006, Id.; Araki et al, 2007, Id.). All antibodies were purchased from BD Bioscience (San Jose, Calif.). All analyses were paired with the corresponding matched isotype control and at least 10,000 live cells were acquired for each analysis (CellQuest software, Becton Dickinson).\nIn order to compare the effects of various chromatin modifying agents (CMAs) on the degree of expansion of cord blood-derived, primitive subpopulation of CD34^+ cells, valproic acid (VPA), trichostatin A (TSA), nicotinic acid (NA), suberoylanilide hydroxamic acid (SAHA) or 5-aza-2′-deoxycytidine (5azaD) as single agents or in combination was tested in vitro. The results of fluorescence-activated cell sorting experiments performed on cord blood-derived CD34^+/CD90^+ cells treated with CMA agents is shown in FIG. 1A."}, "NOD/SCID mice [2]": {"system": "NOD/SCID mice", "test": "SCID repopulating cell (SRC) frequency by limiting dilution analyses", "format": "in vivo, mouse", "settings": "for (# of NOD/SCID mice engrafted)/(# of mice transplanted): Day 9", "protocol": "Immunodeficient nonobese diabetic/ltsz-scid/scid (NOD/SCID) mice were purchased from Jackson Laboratories (Bar Harbor, Me.) and transplantation assays were performed as described (Araki et al., 2009, Id.; Araki et al., 2007, Id.; Taswell, 1981, Id.). Equal number of primary CD34^+ cells or the progeny of an equal initial number of CD34^+ cells following culture were injected per mouse intravenously. Mice were sacrificed 8 weeks after transplantation, and bone marrow (BM) cells from each mouse were analyzed by flow cytometry to detect multilineage human cell engraftment.\nThe frequency of SCID-repopulating cells (SRCs) present in VPA-expanded, CD34^+CD90^+ cord blood-derived stem cells was quantitated in comparison to unmanipulated primary cord blood cells by in vivo xeno-transplant studies using limiting dilution analyses as described previously (Conneally et al., 1997, Proc. Natl. Acad. Sci. 94: 9836-41; Bhatia et al., 1997, J Exp Med. 186: 619-24; Wang et al., 1997, Blood 89: 3919-24; Chute et al., 2005, Blood 105: 576-83). The frequency of SRC was 1 in 22,000 (95% Confidence Interval: 1/11,722-1/41,293) in primary CD34^+CD90^+ cells, and 1 in 21,720 (95% Confidence Interval: 1/11,160-1/42,269) in the VPA expanded cultures (Table 5 and FIG. 2E)."}, "NOD/SCID mice [3]": {"system": "NOD/SCID mice", "test": "In vivo bone marrow homing assay", "design": "species or system mouse", "settings": "expanded CB cells homing to bone marrow; FIG. 2F", "protocol": "In order to assess whether the lower SRC frequency, or lower hematopoietic chimerism, detected following transplantation of VPA expanded cells was due to a defect in the homing of transplanted cells to the host bone marrow, an in vivo homing assay was performed in NOD/SCID mice."}, "NOD/SCID mice [4]": {"system": "NOD/SCID mice", "test": "Serial (secondary) transplantation of expanded CB cells", "format": "in vivo, mouse"}, "[5]": {"system": "histone H4 acetylation of gene promoter sites", "test": "Chromatin immunoprecipitation (ChIP) assay with anti-acetyl-Histone H4 antibody", "format": "cell-based, human", "settings": "FIG. 6B", "protocol": "The ChIP assay was carried out using a commercial Assay kit using the manufacturer's protocol (Millipore; Billerica, Mass.) as described (Sankar et al., 2008, Oncogene 27: 5717-5728). Briefly, after 72 hours of culture CD34^+ cells were crosslinked with formaldehyde and the cell pellet was lysed and sonicated to produce genomic fragments and immunoprecipitated using anti-acetyl-Histone H4 antibody (Millipore). Amplified PCR fragments were then analyzed on a 1.2% agarose gel.\nIn order to examine whether the alteration of gene expression observed in CD34^+ cells during ex vivo expansion culture with CMA was due to changes in histone acetylation, acetylation of histone H4 was analyzed for several gene promoter sites including HoxB4, Bmi1, GATA2, PU.1, as well as GAPDH as a control. Standard chromatin immunoprecipitation (ChIP) assays were used employing an antibody specific to acetylated histone H4 as described previously (Sankar et al., 2008, Oncogene 27:5717-28). […] More promoter fragments for Bmi1, HoxB4, and GATA2, and less fragments for PU.1 were amplified in 5azaD/TSA expanded CD34^+ cells as compared to control and VPA-expanded CD34^+ cells (FIG. 6B)."}}, "note": "“And” between values parts separate entries of the source, which are not always exact repeats. Equal values may be shown once."}
{"smiles": "CCCC(CCC)C(=O)O", "note": "[VPA, valproic acid]", "values": [{"measurement": "cells co-expressing CD34+ and CD90+", "setting": "[1]; 9 days of culture, cytokines (SCF, Flt3-ligand, TPO, IL-3) plus CMA, FIG. 1A", "result": 42.2, "unit": "%"}, {"measurement": "fold expansion of CD34+CD90+ cells", "setting": "[1]; 9 days of culture, cytokines plus CMA, FIG. 1B", "result": "64.6±3.7 fold and 65 fold"}, {"measurement": "CD34+CD90+ (%)", "setting": "[1]; mean ± SEM of three independent experiments", "result": "42.17 ± 13.45", "unit": "%"}, {"measurement": "(# of NOD/SCID mice engrafted)/(# of mice transplanted)", "setting": "NOD/SCID mice [2]; 2,000 CD34+CD90+ cells used to initiate ex vivo culture", "result": "0/7"}, {"measurement": "(# of NOD/SCID mice engrafted)/(# of mice transplanted)", "setting": "NOD/SCID mice [2]; 5,000 CD34+CD90+ cells used to initiate ex vivo culture", "result": "2/5"}, {"measurement": "(# of NOD/SCID mice engrafted)/(# of mice transplanted)", "setting": "NOD/SCID mice [2]; 10,000 CD34+CD90+ cells used to initiate ex vivo culture", "result": "2/7"}, {"measurement": "(# of NOD/SCID mice engrafted)/(# of mice transplanted)", "setting": "NOD/SCID mice [2]; 20,000 CD34+CD90+ cells used to initiate ex vivo culture", "result": "5/8"}, {"measurement": "SRC numbers during ex-vivo culture (in words)", "setting": "NOD/SCID mice [2]; mouse, in vivo", "result": "maintained SRC numbers"}, {"measurement": "homing efficiency", "setting": "NOD/SCID mice [3]", "result": 1.68, "unit": "%"}, {"measurement": "Secondary mouse BM chimerism (% human)", "setting": "NOD/SCID mice [4]; 10-30 × 10^6 unseparated BM cells from primary mouse, sacrificed 7 weeks later, individual mice", "result": "Not Detectable"}, {"measurement": "Primary mouse BM chimerism (% human)", "setting": "NOD/SCID mice [4]; progeny of 1 × 10^4 primary CB cells treated ex vivo for 9 days, individual mice", "result": "0.60 % human and 1.0 % human (2×) and 0.30 % human and 5.6 % human"}, {"measurement": "secondary hosts engrafted", "setting": "NOD/SCID mice [4]; serial transplantation from primary recipients", "result": "none of the 5"}, {"measurement": "histone H4 acetylation of the promoter regions of HoxB4, Bmi1 and GATA2 genes in contrast to control cultures", "setting": "[5]; CD34+ cells after 72 hours of culture", "result": "Increased histone H4 acetylation"}, {"measurement": "levels of histone H4 acetylation for Bmi1 and HoxB4 genes compared to control cultures", "setting": "[5]", "result": "intermediate levels"}]}
